Source: PubChem BioAssay AID2060491 (Molecular Pharmacology Branch, DTP, NCI, 2025)

System: 857933-349-R-J2-PDC complex spheroids, viability
Test: Anticancer human tumor 857933-349-R-J2-PDC patient-derived colon adenocarcinoma cell line growth inhibition [GQUAD]
Details: for IC50: curve of first compound; for viability, T/C: stronger effect = lower value
Method in brief: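 Tumor cells were grown as complex spheroids with HUVEC endothelial cells and mesenchymal stem cells as stroma. G-quadruplex stabilizers were combined with targeted agents over half-log dilutions from near the clinical Cmax, or from 10 microM.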

[1] = second compound 0.0316 µM, first compound 0.0316 µM
[2] = second compound 0.0316 µM, first compound 0.316 µM
[3] = second compound 0.1 µM, first compound 0.0316 µM
[4] = second compound 0.1 µM, first compound 0.316 µM
[5] = second compound 0.316 µM, first compound 0.0316 µM
[6] = second compound 0.316 µM, first compound 0.316 µM
[7] = second compound 1 µM, first compound 0.0316 µM
[8] = second compound 1 µM, first compound 0.316 µM
[9] = second compound 3.16 µM, first compound 0.0316 µM
[10] = second compound 3.16 µM, first compound 0.316 µM
[11] = second compound 10 µM, first compound 0.0316 µM
[12] = second compound 10 µM, first compound 0.316 µM
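Note: spheroids exposed to compounds for one week before readout.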
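Throughout, for viability, T/C: percent viability relative to vehicle DMSO wells taken as 100%.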

C=CC(=O)N1CCN(c2nc(=O)n(-c3c(C)ccnc3C(C)C)c3nc(-c4c(O)cccc4F)c(F)cc23)C(C)C1 (centres undefined) + Cc1cnc(CNC(=O)c2c(=O)c3ccc(N4CCCN(C)CC4)nc3n3c2sc2ccccc23)cn1
IC50 (second compound 0.0316 µM): > 10000 nM | IC50 (second compound 0.1 µM): > 10000 nM | IC50 (second compound 0.316 µM): < 31.6 nM | IC50 (second compound 1 µM): < 31.6 nM | IC50 (second compound 3.16 µM): < 31.6 nM | IC50 (second compound 10 µM): < 31.6 nM | viability, T/C [1]: 106% | viability, T/C (second compound 0.0316 µM, first compound 0.1 µM): 85.1% | viability, T/C [2]: 91.4% | viability, T/C (second compound 0.0316 µM, first compound 1 µM): 88.1% | viability, T/C (second compound 0.0316 µM, first compound 3.16 µM): 111% | viability, T/C (second compound 0.0316 µM, first compound 10 µM): 79.3% | viability, T/C [3]: 59.7% | viability, T/C (second compound 0.1 µM, first compound 0.1 µM): 69.3% | viability, T/C [4]: 64.4% | viability, T/C (second compound 0.1 µM, first compound 1 µM): 73% | viability, T/C (second compound 0.1 µM, first compound 3.16 µM): 78.2% | viability, T/C (second compound 0.1 µM, first compound 10 µM): 67% | viability, T/C [5]: 19.7% | viability, T/C (second compound 0.316 µM, first compound 0.1 µM): 25.7% | viability, T/C [6]: 26.4% | viability, T/C (second compound 0.316 µM, first compound 1 µM): 22.1% | viability, T/C (second compound 0.316 µM, first compound 3.16 µM): 34.4% | viability, T/C (second compound 0.316 µM, first compound 10 µM): 30.8% | viability, T/C [7]: 4.37% | viability, T/C (second compound 1 µM, first compound 0.1 µM): 5.36% | viability, T/C [8]: 4.38% | viability, T/C (second compound 1 µM, first compound 1 µM): 4.4% | viability, T/C (second compound 1 µM, first compound 3.16 µM): 4.7% | viability, T/C (second compound 1 µM, first compound 10 µM): 5.94% | viability, T/C [9]: 2.59% | viability, T/C (second compound 3.16 µM, first compound 0.1 µM): 2.48% | viability, T/C [10]: 2.57% | viability, T/C (second compound 3.16 µM, first compound 1 µM): 3.03% | viability, T/C (second compound 3.16 µM, first compound 3.16 µM): 3.31% | viability, T/C (second compound 3.16 µM, first compound 10 µM): 2.69% | viability, T/C [11]: 1.16% | viability, T/C (second compound 10 µM, first compound 0.1 µM): 1.17% | viability, T/C [12]: 1.22% | viability, T/C (second compound 10 µM, first compound 1 µM): 1.56% | viability, T/C (second compound 10 µM, first compound 3.16 µM): 1.95% | viability, T/C (second compound 10 µM, first compound 10 µM): 1.37%

CCc1c2c(nc3ccc(O)cc13)-c1cc3c(c(=O)n1C2)COC(=O)[C@]3(O)CC + Cc1cnc(CNC(=O)c2c(=O)c3ccc(N4CCCN(C)CC4)nc3n3c2sc2ccccc23)cn1
IC50 (second compound 0.0316 µM): 3.53 nM | IC50 (second compound 0.1 µM): 3.89 nM | IC50 (second compound 0.316 µM): < 0.999 nM | IC50 (second compound 1 µM): < 0.999 nM | IC50 (second compound 3.16 µM): < 0.999 nM | IC50 (second compound 10 µM): < 0.999 nM | viability, T/C (second compound 0.0316 µM, first compound 0.000999 µM): 89% | viability, T/C (second compound 0.0316 µM, first compound 0.00316 µM): 43.6% | viability, T/C (second compound 0.0316 µM, first compound 0.00999 µM): 41.9% | viability, T/C [1]: 16.5% | viability, T/C (second compound 0.0316 µM, first compound 0.0999 µM): 10.4% | viability, T/C [2]: 8.23% | viability, T/C (second compound 0.1 µM, first compound 0.000999 µM): 55.4% | viability, T/C (second compound 0.1 µM, first compound 0.00316 µM): 55.9% | viability, T/C (second compound 0.1 µM, first compound 0.00999 µM): 31.9% | viability, T/C [3]: 11% | viability, T/C (second compound 0.1 µM, first compound 0.0999 µM): 6.26% | viability, T/C [4]: 3.59% | viability, T/C (second compound 0.316 µM, first compound 0.000999 µM): 25.9% | viability, T/C (second compound 0.316 µM, first compound 0.00316 µM): 17.3% | viability, T/C (second compound 0.316 µM, first compound 0.00999 µM): 5.28% | viability, T/C [5]: 2.97% | viability, T/C (second compound 0.316 µM, first compound 0.0999 µM): 2.84% | viability, T/C [6]: 0.55% | viability, T/C (second compound 1 µM, first compound 0.000999 µM): 3.82% | viability, T/C (second compound 1 µM, first compound 0.00316 µM): 3.55% | viability, T/C (second compound 1 µM, first compound 0.00999 µM): 2.71% | viability, T/C [7]: 1.95% | viability, T/C (second compound 1 µM, first compound 0.0999 µM): 1.2% | viability, T/C [8]: 0.14% | viability, T/C (second compound 3.16 µM, first compound 0.000999 µM): 2.34% | viability, T/C (second compound 3.16 µM, first compound 0.00316 µM): 1.9% | viability, T/C (second compound 3.16 µM, first compound 0.00999 µM): 1.86% | viability, T/C [9]: 0.77% | viability, T/C (second compound 3.16 µM, first compound 0.0999 µM): 0.1% | viability, T/C [10]: 0.13% | viability, T/C (second compound 10 µM, first compound 0.000999 µM): 1.54% | viability, T/C (second compound 10 µM, first compound 0.00316 µM): 0.97% | viability, T/C (second compound 10 µM, first compound 0.00999 µM): 0.21% | viability, T/C [11]: 0.17% | viability, T/C (second compound 10 µM, first compound 0.0999 µM): 0.16% | viability, T/C [12]: 0.19%
